Experiments:
[1] = biological target: T1, MDM2 (Homo sapiens, UniProt Q00987); assay: FP displacement of Texas Red-labelled p53 peptide from MDM2; binding confirmed by WaterLOGSY NMR
[2] = biological target: T1, MDM2; assay: FP displacement of Texas Red-labelled p53 peptide from MDM2; assay type: binding

T1 sequence (Q00987 whole entry): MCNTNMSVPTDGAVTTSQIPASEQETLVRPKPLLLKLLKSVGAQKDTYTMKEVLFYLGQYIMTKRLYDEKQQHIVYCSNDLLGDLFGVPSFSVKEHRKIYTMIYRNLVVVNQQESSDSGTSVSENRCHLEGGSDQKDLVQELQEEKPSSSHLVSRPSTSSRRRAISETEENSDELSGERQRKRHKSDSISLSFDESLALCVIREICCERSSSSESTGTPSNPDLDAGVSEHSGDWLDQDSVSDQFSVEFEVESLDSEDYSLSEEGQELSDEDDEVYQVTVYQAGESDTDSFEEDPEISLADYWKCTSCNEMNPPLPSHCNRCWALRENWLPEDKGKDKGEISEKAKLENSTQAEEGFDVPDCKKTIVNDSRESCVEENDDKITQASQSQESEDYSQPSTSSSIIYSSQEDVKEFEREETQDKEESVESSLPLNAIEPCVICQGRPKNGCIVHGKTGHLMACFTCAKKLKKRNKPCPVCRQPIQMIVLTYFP

SMILES: CCCNc1nc(NCC(=O)OCC)c2nc(-c3cn(C)nn3)n(C3Cc4ccccc4C3)c2n1 [14f, 6-(Ethoxy-carbonyl-methylamino)-9-(2-indanyl)-8-(1-methyl-1H-1,2,3-triazol-4-yl)-2-(1-propylamino)purine]
- IC50 [1]: 10 µM

SMILES: CCCNc1nc(N)c2nc(-c3cn(C)nn3)n(C3Cc4ccccc4C3)c2n1 [14j]
- IC50 [2]: 56 µM
